Patent publication US11434249B1, “ASK1 inhibitor compounds and uses thereof” (Seal Rock Therapeutics, Inc., priority 2018, dated 2022)

target: ASK1 (Homo sapiens (Human), UniProt Q99683); test: ASK1 Kinase Assay (Promega ASK1 Kinase Enzyme System, ADP-Glo luminescence); type: biochemical; details: at 10 μM compound; enzyme 50 nM, ATP 10 μM
Protocol: The ASK1 enzymatic assay was run following Promega ASK1 Kinase Enzyme System (Cat #V3881). The kit provides the protocol, enzymes and all reagents necessary to run an assay.
The compounds, enzyme, substrate and ATP were diluted in provided assay buffer. The final concentration of the enzyme was 50 nM, substrate (Myelin basic protein) 1 μg/mL and ATP 10 μM. The compound and the enzyme were pre-incubated in a 384-well white solid bottom plate (Greiner, Cat #784075) for 10 minutes. After incubation, the substrate and ATP were added and incubated for an additional 60 minutes. After 60 minutes, ADP-Glo™ was added and the plate was incubated for another 40 minutes. After 40 minutes, Kinase Detection Reagent was added and the plate was incubated for 45 minutes. After 45 minutes, the plate was read on a Perkin Elmer EnVision using luminescence read (0.5 seconds/well).

Chain of ASK1 (Q99683 whole entry): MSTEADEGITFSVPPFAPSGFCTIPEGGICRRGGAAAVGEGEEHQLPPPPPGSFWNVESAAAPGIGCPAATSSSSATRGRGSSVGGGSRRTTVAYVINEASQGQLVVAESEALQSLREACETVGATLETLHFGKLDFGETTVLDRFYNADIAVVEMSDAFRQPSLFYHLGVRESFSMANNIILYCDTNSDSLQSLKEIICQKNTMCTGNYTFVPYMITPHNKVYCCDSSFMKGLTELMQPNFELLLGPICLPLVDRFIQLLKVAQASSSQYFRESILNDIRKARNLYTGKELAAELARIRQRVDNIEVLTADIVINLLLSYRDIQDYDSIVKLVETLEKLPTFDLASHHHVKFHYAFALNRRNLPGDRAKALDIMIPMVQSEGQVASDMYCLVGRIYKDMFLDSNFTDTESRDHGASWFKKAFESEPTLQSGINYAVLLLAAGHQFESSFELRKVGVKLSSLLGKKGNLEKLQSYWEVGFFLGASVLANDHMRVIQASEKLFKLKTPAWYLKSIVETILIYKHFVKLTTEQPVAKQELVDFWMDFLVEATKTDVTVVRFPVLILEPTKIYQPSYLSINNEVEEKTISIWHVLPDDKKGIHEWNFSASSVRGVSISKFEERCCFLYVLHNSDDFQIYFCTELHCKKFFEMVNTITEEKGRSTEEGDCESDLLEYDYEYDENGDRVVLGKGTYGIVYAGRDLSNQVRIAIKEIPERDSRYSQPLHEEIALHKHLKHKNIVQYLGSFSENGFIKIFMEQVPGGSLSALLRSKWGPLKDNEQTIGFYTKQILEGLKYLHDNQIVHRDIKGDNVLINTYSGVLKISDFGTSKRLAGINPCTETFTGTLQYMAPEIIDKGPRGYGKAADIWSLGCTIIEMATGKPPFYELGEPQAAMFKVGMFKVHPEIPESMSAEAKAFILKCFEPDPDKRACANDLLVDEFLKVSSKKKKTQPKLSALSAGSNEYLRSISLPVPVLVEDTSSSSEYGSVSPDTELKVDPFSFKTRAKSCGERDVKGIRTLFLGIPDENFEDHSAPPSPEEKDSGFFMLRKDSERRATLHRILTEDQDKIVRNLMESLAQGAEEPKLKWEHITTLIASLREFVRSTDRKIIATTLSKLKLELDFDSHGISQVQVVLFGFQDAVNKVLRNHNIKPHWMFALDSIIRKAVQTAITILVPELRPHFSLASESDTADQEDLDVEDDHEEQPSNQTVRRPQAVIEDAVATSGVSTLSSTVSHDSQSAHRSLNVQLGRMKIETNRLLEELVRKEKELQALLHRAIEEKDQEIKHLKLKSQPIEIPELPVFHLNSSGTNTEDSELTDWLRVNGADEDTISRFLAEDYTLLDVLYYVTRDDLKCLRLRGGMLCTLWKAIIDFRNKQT

inhibition at 10 µM [%]	Structure (SMILES)
45	O=C1c2scc(-c3ccccc3)c2CN1c1cccc(-c2nncn2C2CC2)n1 [Example 7, 5-(6-(4-cyclopropyl-4H-1,2,4-triazol-3-yl)pyridin-2-yl)-3-phenyl-4,5-dihydro-6H-thieno[2,3-c]pyrrol-6-one]

same assay, conditions: enzyme 50 nM, Myelin basic protein 1 μg/mL, ATP 10 μM

Structure (SMILES)	IC50 [µM]
Cc1cc2c(s1)C(=O)N(c1cccc(-c3nncn3C3CC3)n1)C2 [Example 5, 5-(6-(4-cyclopropyl-4H-1,2,4-triazol-3-yl)pyridin-2-yl)-2-methyl-4,5-dihydro-6H-thieno[2,3-c]pyrrol-6-one]	< 1
O=C1c2sc3ccccc3c2CN1c1cccc(-c2nncn2C2CC2)n1 [Example 12, 2-(6-(4-cyclopropyl-4H-1,2,4-triazol-3-yl)pyridin-2-yl)-1,2-dihydro-3H-benzo[4,5]thieno[2,3-c]pyrrol-3-one]	< 1
Cc1csc2c1CN(c1cccc(-c3nncn3C3CC3)n1)C2=O [Example 9, 5-(6-(4-cyclopropyl-4H-1,2,4-triazol-3-yl)pyridin-2-yl)-3-methyl-4,5-dihydro-6H-thieno[2,3-c]pyrrol-6-one]	< 1
CC(=O)c1ccccc1-c1cc2c(s1)C(=O)N(c1cccc(-c3nncn3C3CC3)n1)C2 [Example 2, 2-(2-Acetylphenyl)-5-(6-(4-cyclopropyl-4H-1,2,4-triazol-3-yl)pyridin-2-yl)-4,5-dihydro-6H-thieno[2,3-c]pyrrol-6-one]	< 1
O=C1c2sccc2CN1c1cccc(-c2nncn2C2CC2)n1 [Example 1, 5-(6-(4-Cyclopropyl-4H-1,2,4-triazol-3-yl)pyridin-2-yl)-4,5-dihydro-6H-thieno[2,3-c]pyrrol-6-one]	< 1

Further lines, results first:

IC50 [µM]	Structure (SMILES)
1 to 10	CC(C)CNc1csc2c1CN(c1cccc(-c3nncn3C3CC3)n1)C2=O [Example 11, 5-(6-(4-cyclopropyl-4H-1,2,4-triazol-3-yl)pyridin-2-yl)-3-(isobutylamino)-4,5-dihydro-6H-thieno[2,3-c]pyrrol-6-one]
< 1	O=C1c2scc(Br)c2CN1c1cccc(-c2nncn2C2CC2)n1 [Example 10, 3-bromo-5-(6-(4-cyclopropyl-4H-1,2,4-triazol-3-yl)pyridin-2-yl)-4,5-dihydro-6H-thieno[2,3-c]pyrrol-6-one]
< 1	CCc1cc2c(s1)C(=O)N(c1cccc(-c3nncn3C3CC3)n1)C2 [Example 6, 5-(6-(4-cyclopropyl-4H-1,2,4-triazol-3-yl)pyridin-2-yl)-2-ethyl-4,5-dihydro-6H-thieno[2,3-c]pyrrol-6-one]
< 1	O=C1c2sc(C3CCOCC3)cc2CN1c1cccc(-c2nncn2C2CC2)n1 [Example 4, 5-(6-(4-cyclopropyl-4H-1,2,4-triazol-3-yl)pyridin-2-yl)-2-(tetrahydro-2H-pyran-4-yl)-4,5-dihydro-6H-thieno[2,3-c]pyrrol-6-one]
< 1	COc1cc2c(s1)C(=O)N(c1cccc(-c3nncn3C3CC3)n1)C2 [Example 13, 5-(6-(4-cyclopropyl-4H-1,2,4-triazol-3-yl)pyridin-2-yl)-2-methoxy-4,5-dihydro-6H-thieno[2,3-c]pyrrol-6-one]
< 1	CC(C)n1cnnc1-c1cccc(N2Cc3ccsc3C2=O)n1 [Example 14, 5-(6-(4-isopropyl-4H-1,2,4-triazol-3-yl)pyridin-2-yl)-4,5-dihydro-6H-thieno[2,3-c]pyrrol-6-one]
